As to `COC(=O)C1=C(C)NC(c2ncccc2F)=NC1c1ccc(F)cc1` (stereo not drawn), the melting point – broadly, the temperature, or range, at which the solid turns liquid – lay within 127 to 129 °C. As to `CCOC(=O)C1=C(C)NC(c2ncccc2F)=NC1c1ccc(Cl)cc1` (stereo not drawn), the melting point was 133 to 134 °C. `COC(=O)C1=C(C)NC(c2ncccc2F)=NC1c1ccccc1` (stereo not drawn) displayed a melting point of 110 to 111 °C. The same measure for `CCOC(=O)C1=C(C)NC(c2ncccc2F)=NC1c1c(F)cccc1F` (stereo not drawn): 140 to 142 °C; for `COC(=O)C1=C(C)NC(c2ncccc2F)=NC1c1ccccc1C(F)(F)F` (stereo not drawn): 165 to 167 °C; for `COC(=O)C1=C(C)NC(c2ncccc2F)=NC1c1c(Cl)cccc1Cl` (stereo not drawn): 180 to 182 °C.

As to `CCOC(=O)C1=C(C)NC(c2ncccc2F)=NC1c1c(Cl)cccc1Cl` (stereo not drawn), the melting point lay within 148 to 149 °C. In turn, `COC(=O)C1=C(C)NC(c2ncccc2F)=NC1c1ccc(F)cc1Cl` (stereo not drawn) yielded a melting point of 121 to 123 °C. Molecule `COC(=O)C1=C(C)NC(c2ccc(C(F)(F)F)cn2)=NC1c1ccccc1Cl` (stereo not drawn) had a melting point of 121 to 123 °C. For `CCOC(=O)C1=C(C)NC(c2ncccc2Cl)=NC1c1ccccc1Cl` (stereo not drawn), the melting point is 138 to 140 °C. The same measure for `COC(=O)C1=C(C)NC(c2ccc(Cl)cn2)=NC1c1ccccc1Cl` (stereo not drawn): 163 to 165 °C; for `C=CCOC(=O)C1=C(C)NC(c2ncccc2F)=NC1c1ccccc1Cl` (stereo not drawn): 124 to 126 °C. `CC1=C(C(=O)OCCOc2ccccc2)C(c2ccccc2Cl)N=C(c2ncccc2F)N1` (stereo not drawn): the melting point lay within 123 to 125 °C. `CCOC(=O)C1=C(C)NC(c2ncccc2F)=NC1c1ccc(I)cc1` (stereo not drawn): the melting point lay within 145 to 146 °C. Under `COC(=O)C1=C(C2CC2)NC(c2ncccc2F)=NC1c1ccccc1Cl` (stereo not drawn) stands 120 to 122 °C; under `COC(=O)C1=C(C)NC(c2ncccc2Cl)=NC1c1ccccc1Cl` (stereo not drawn), 144 to 146 °C; under `COC(=O)C1=C(C)NC(c2ncccc2F)=NC1c1ccc(Cl)c([N+](=O)[O-])c1` (stereo not drawn), 135 to 137 °C.

`COC(=O)C1=C(C)NC(c2ncccc2F)=NC1c1ccccc1Br` (stereo not drawn) gave a melting point of 143 to 144 °C. Under `COC(=O)C1=C(C)NC(c2ncccc2F)=NC1c1ccc(Br)cc1` (stereo not drawn) stands 156 to 157 °C.

For `CCOC(=O)C1=C(C)NC(c2ncccc2F)=NC1c1ccc(Br)cc1` (stereo not drawn), the melting point was 134 to 135 °C.

Turning to `CCOC(=O)C1=C(C)NC(c2ncccc2F)=NC1c1ccc(O)cc1Cl` (stereo not drawn), the melting point lay in the range of 247 to 248 °C. On to `CCOC(=O)C1=C(C)NC(c2ncccc2F)=NC1c1ccc(F)cc1` (stereo not drawn), for which the melting point fell in the range of 129 to 130 °C. In turn, `CCOC(=O)C1=C(C)NC(c2ncccc2Cl)=NC1c1ccc(Br)cc1F` (stereo not drawn) returned a melting point of 126 to 127 °C. Molecule `CCOC(=O)C1=C(C)NC(c2ncccc2F)=NC1c1ccc(Br)cc1F` (stereo not drawn) had a melting point of 156 to 158 °C. As to `CCOC(=O)C1=C(C)NC(c2ncccc2F)=NC1c1ccc(Cl)cc1F` (stereo not drawn), the melting point was in the range of 162 to 163 °C. With `CCOC(=O)C1=C(C)NC(c2ncccc2F)=NC1c1ccc(F)cc1C` (stereo not drawn), the melting point lay within 167 to 169 °C. The same measure for `CCOC(=O)C1=C(C)NC(c2ncccc2F)=NC1c1ccccc1I` (stereo not drawn): 163 to 164 °C; for `COC(=O)C1=C(C)NC(c2ncccc2F)=NC1c1ccc(Cl)cc1F` (stereo not drawn): 120 to 122 °C; for `COC(=O)C1=C(C)NC(c2ncccc2Cl)=NC1c1ccc(Br)cc1F` (stereo not drawn): 103 to 104 °C. `COC(=O)C1=C(C)NC(c2ncccc2F)=NC1c1ccccc1Cl.Cl` (stereo not drawn) came in with a melting point of 210 to 212 °C.

Regarding `CC(=O)C1=C(C)NC(c2ncccc2F)=NC1c1ccccc1Cl` (stereo not drawn), the melting point lay in the range of 132 to 133 °C.

As to `COC(=O)C1=C(C)NC(c2ncccc2Cl)=NC1c1ccc(F)cc1Cl` (stereo not drawn), the melting point was in the range of 95 to 96 °C. `COC(=O)C1=C(C)NC(c2ncccc2Cl)=NC1c1ccccc1Br` (stereo not drawn): the melting point is 131 to 132 °C. Under `CCOC(=O)C1=C(C)NC(c2ncccc2Cl)=NC1c1ccccc1Br` (stereo not drawn) stands 137 to 138 °C. Under `COC(=O)C1=C(C)NC(c2ncccc2F)=NC1c1ccc([N+](=O)[O-])cc1` (stereo not drawn) stands 142 to 143 °C; under `CCOC(=O)C1=C(C)NC(c2ncccc2F)=NC1c1ccc(Cl)cc1[N+](=O)[O-]` (stereo not drawn), 184 to 186 °C; under `CCOC(=O)C1=C(C)NC(c2ncccc2F)=NC1c1cc(Cl)cc(Cl)c1` (stereo not drawn), 133 to 134 °C. The molecule `COC(=O)C1=C(C)NC(c2ncccc2F)=NC1c1cc([N+](=O)[O-])c(Cl)cc1F` (stereo not drawn) gave a melting point of 135 to 136 °C. For the molecule `COC(=O)C1=C(C)NC(c2ccc(F)cn2)=NC1c1ccc(F)cc1Cl` (stereo not drawn), the melting point worked out at 131 °C. For the molecule `CCOC(=O)C1=C(C)NC(c2ccc(F)cn2)=NC1c1ccc(F)cc1Cl` (stereo not drawn), the melting point was 124 °C. Consider `CCOC(=O)C1=C(C)NC(c2ccc(OC)cn2)=NC1c1ccc(F)cc1Cl` (stereo not drawn), for which the melting point was found to be 141 °C. The same measure for `COC(=O)C1=C(C)NC(c2cc(OC)ccn2)=NC1c1ccc(F)cc1Cl` (stereo not drawn): 132 °C; for `COC(=O)C1=C(C)NC(c2cccc(C)n2)=NC1c1ccccc1Cl` (stereo not drawn): 142 to 143 °C. Take `COC(=O)C1=C(C)NC(c2ncccc2F)=NC1c1ccc(Cl)cc1` (stereo not drawn): the melting point was 139 to 140 °C.

In the case of `COC(=O)C1=C(C)NC(c2ncccc2F)=NC1c1cccc2ncc(-c3ccccc3)cc12` (stereo not drawn), the melting point lay in the range of 174 to 175 °C.

(Values after patent US6696451B1 (dated 2004).)
